Columns and labels:
A‐673 cells = assay: Cell viability assay (XTT), A‐673 cells; type: cell-based, human
Experimental: AsPC‐1, A‐673, and TC‐71 cells were seeded in 96‐well plates (800 cells/well for AsPC‐1, 2000 cells/well for A‐673, and 400 cells/well for TC‐71) and cultured overnight. Vehicle (DMSO) or a test compound diluted with the medium was then added to the wells (final DMSO concentration was 0.3%), and 72 h later, 2,3‐bis[2‐methoxy‐4‐nitro‐5‐sulfophenynl]‐2H‐tetrazolium‐5‐carboxanilide inner salt (XTT) reagent (Roche Diagnostics, Mannheim, Germany) was added to the medium. After 3‐h incubation at 37°C, the formation of the formazan dye was determined by measuring absorbance at 490 and 650 nm using a SpectraMax 340PC system (Molecular Devices, Sunnyvale, CA, USA).

TC‐71‐derived tumors = assay: TC‐71 xenograft in SCID mice; type: in vivo, mouse; details: 10, 30, or 100 mg/kg orally once daily; less sensitive than others
Experimental: (§1) All animal studies were performed in accordance with Standards for Proper Conduct sof Animal Experiments at Kyowa Kirin Co., Ltd., under the approval of the company's Institutional Animal Care and Use Committee. Male C.B17/Icr‐scid/scidJcl (SCID) mice (5 weeks old) were purchased from CREA Japan (Tokyo, Japan). K‐733 was suspended in 0.5% (w/v) methylcellulose 400 (MC400; FUJIFILM Wako Pure Chemical) and orally administered to mice once daily. Ewing's cells were suspended in Dulbecco's phosphate‐buffered saline (DPBS; Thermo Fisher Scientific, Waltham, MA, USA) and injected subcutaneously into the ventral side of mice at 5 × 10^6 cells/0.1 mL/mouse for A‐673 and TC‐71 and 1 × 10^7 cells/0.1 mL/mouse for CADO‐ES1 and SK‐ES‐1. In experiments using TC‐71 cells, 0.3 mg of anti‐asialo GM1 antibody (FUJIFILM Wako Pure Chemical) was injected intraperitoneally 1 day before TC‐71 injection. The tumor size and body weight were measured every 3 or 4 days. The tumor volume was calculated using the following equation: Tumor volumemm^3=DL×DS×DS×1/2, where DL and DS represent the long diameter and short diameter, respectively. The pharmacokinetic analysis of K‐733 is described in Materials and Methods S2.

[1] = tested on: EWS‐FLI1 target gene expression; assay: EWS‐FLI1 target gene expression in A‐673 tumors after 14‐day treatment; type: in vivo, mouse; details: after 14‐day oral treatment
Experimental: Total RNA was extracted using the RNeasy Plus Mini kit (Qiagen, Valencia, CA, USA) according to the manufacturer's protocol. cDNA was synthesized from 1 μg of total RNA using a SuperScript VILO cDNA synthesis kit (Thermo Fisher Scientific). Real‐time PCR was carried out using TaqMan Fast Universal PCR Master Mix (Thermo Fisher Scientific).
as §1
FIGURE 8 K‐733 exerts an anti‐tumor effect in mice bearing Ewing's sarcoma. (A) Plasma concentration‐time profiles of K‐733 in mice after a single oral administration of K‐733. Each plot represents the mean of duplicate measurements. (B) Antitumor effect of K‐733 on A‐673 cells. Indicated doses of K‐733 were orally administered once daily for 14 days. Each plot represents the mean of n = 5 and SE. C, Influence of K‐733 on EWS‐FLI1‐related genes. Tumors were sampled after 14 days oral administration of K‐733. Each plot represents the mean of n = 5 and SE. […]

[2] = Plasma concentration‐time profile after single oral administration; type: in vivo, mouse; details: BALB/c mice
Experimental: First, we evaluated the plasma concentration‐time profile of K‐733 after single oral administration at dose ranges from 1 to 100 mg/kg in BALB/c mice (donors of SCID mice) for dose selection (Figure 8A). […] Therefore, we selected dose ranges from 10 to 100 mg/kg for in vivo studies.
Male BALB/cAnNCrlCrlj mice (6 weeks old) were purchased from Jackson Laboratories Japan (Yokohama, Japan). K-733, suspended in 0.5% (w/v) MC400 was orally administered at 1, 3, 10, and 100 mg/kg (n=2), and blood samples were collected from the tail vein at 0.5, 1, 2, 4, 7 and 24 h after administration. Mice were euthanized with carbon dioxide inhalation after the final blood sampling. Plasma was separated and stored frozen until use. The plasma concentration of K-733 was determined by liquid chromatography with tandem mass spectrometry (LC-MS). Plasma samples were pre-treated for protein precipitation, and the supernatant was subjected to liquid LC-MS. The analyte was separated on a C18 reverse-phase column (CAPCELL PAK C18 MG 3 μm, 3 mm I.D. × 35 mm; Osaka Soda). LC-MS detection was performed by electrospray ionization in a positive ion mode. The detected mass-to-charge ratio of K-733 was 482.95/92.75 (Q1/Q3). The lower limit of quantification (LLOQ) was 10 nM.

Cc1nc(-c2ccc(C3c4[nH]c5ccc(Cl)cc5c4CCN3C(=O)Oc3ccccc3)cc2)no1 (centres unmarked) [K-733, phenyl 6‐chloro‐1‐(4‐(5‐methyl‐1,2,4‐oxadiazol‐3‐yl)phenyl)‐1,3,4,9‐tetrahydro‐2H‐pyrido[3,4‐b]indole‐2‐carboxylate]
Cell viability of A‐673 cells (A‐673 cells; 72 h): decreased the viability
GI50 (A‐673 cells; Homo sapiens, A673, 50% growth inhibition concentration, A‐673 cells): 6.11 nM
Tumor growth, TC‐71 xenograft (TC‐71‐derived tumors): reduced dose‐dependently
DAX1 mRNA levels in tumors [1]: no marked effect
mRNA levels of IGFBP3 and DKK1 in tumors [1]: increased
mRNA levels of NKX2‐2 in tumors [1]: decreased
Plasma concentration, dose dependence ([2]; single oral 1 to 100 mg/kg): increased dose‐dependently
Plasma concentration relative to IC50 (DAX1 reporter and DHODH inhibition) ([2]; single oral ≥10 mg/kg): higher than the IC50 value

From article PMC10166890, “Screening for DAX1/EWS‐FLI1 functional inhibitors identified dihydroorotate dehydrogenase as a therapeutic target for Ewing's sarcoma” (Cancer Medicine, 2023)
